We go through 2 compounds from paper PMC10719761 (Journal of the American Chemical Society, 2023).

The conditions of series [1]: cited from earlier work.
Series [2] is described as follows: Incubation with GSH at pH 7.4. The series is classed as physicochemical. The conditions noted are these: pH 7.4, within 4 h of incubation.

Consider `N[C@@H](CCC(=O)N[C@@H](CS)C(=O)NCC(=O)O)C(=O)O` [GSH, glutathione], for which, in series [1], the pKa is 9.17.
`COc1ccc2c(c1)CCCN2C(=O)CCl` [Compound 11]: the “corresponding GSH adduct produced” value in series [2] was “more than 50%”.
